# Tests used:
# human cortical neurons = assay: Inhibition of toxicity of β-amyloid peptide to human neuronal cells (alamarBlue); type: cell-based; conditions: 50 μM β-amyloid peptide, 2-3 days; on average where more than one duplicate experiment; compound concentration not stated
# Method: (§1) The purpose of this test is to determine the effect of 3-indolyl-5-pyrazolone compounds on the toxicity of β-amyloid peptide to neuronal cells.
# Primary Human Cortical Cell Culture
# Primary human cortical cultures were prepared using a modification of the procedure described by Seubert, et al.^21 Following filtration through Nitex nylon screens, cortical tissue was resuspended in a trypsin/EDTA solution (0.05% trypsin+0.53 mM EDTA in HBSS; GIBCO Laboratories, Grand Island, N.Y., USA) and kept at 37° C. for 20 minutes. The trypsin was then inactivated by resuspending the cells in serum-containing medium (MEM/FBS: Modified Eagles' Medium (MEM) containing 1% glucose, 1 mM sodium pyruvate, 1 mM glutamine, and supplemented with 10% fetal bovine serum (GIBCO). Cells were then pelleted by centrifugation and resuspended in a chemically-defined medium (MEM/B27: MEM containing B27 supplement in place of FBS; GIBCO). Polyethyleneimine (PEI; Sigma Chemical Company, St. Louis, Mo., USA)-coated 6.4 mm (96-well) dishes were rinsed once with MEM/FBS, and then seeded at 0.75 to 1.25×10^5 cells per well in 0.1 mL MEM/B27. Cultures were maintained in a H2 O-saturated incubator with an atmosphere of 95% air/5% CO 2 at 37° C. The culture medium was exchanged twice weekly. Cell viability was visually assessed by phase contrast microscopy and quantified by measuring the reduction of alamarBlue™ (Alamar Biosciences, Inc., Sacramento, Calif., USA).
# (§2) β-amyloid peptide stock solutions were prepared as 1 mM stocks in sterile, doubly distilled water immediately prior to addition to cultures. Rat cortical neurons were exposed to β-amyloid peptide by removing the culture medium and replacing it with DMEM/N2 (GIBCO Laboratories,Grand Island, N.Y., USA) containing 10 to 20 μM β-amyloid peptide. Human cortical neurons were exposed to test compound plus β-amyloid peptide by removing the culture medium and replacing it with MEM containing 50 μM β-amyloid peptide. Cultures were maintained for 2-3 days before neuronal survival was quantified using alamarBlue™.
# (§3) The alamarBlue™ assay incorporates a fluorometric/colorimetric metabolic indicator (Alamar Biosciences, Inc. Sacramento, Calif., USA). Viable cells convert alamarBlue™ from an oxidized (non-fluorescent, blue) form to a reduced (fluorescent, red) form. Assays were preformed by replacing the culture media with a 10% alamarBlue™ solution in DMEM (rat cortical cultures) or MEM (human cortical cultures).
# rat cortical neurons = assay: Inhibition of toxicity of β-amyloid peptide to rat neuronal cells (alamarBlue); type: cell-based; conditions: 10 to 20 μM β-amyloid peptide, 2-3 days; on average where more than one duplicate experiment; compound concentration not stated
# Method: as §1
# Primary rat cortical cultures were established from 18 day rat fetuses. Cortical tissue was dissociated by incubation in a trypsin/EDTA solution (0.05% trypsin+0.53 mM EDTA in HBSS; GIBCO Laboratories, Grand Island, N.Y., USA) for 20 minutes at 37° C. The trypsin was then inactivated by resuspending the cells in serum-containing medium (DMEM/FBS): Dulbecco's Modified Eagles' Medium (DMEM) containing 4.5 g/L glucose, 1 mM sodium pyruvate, 1 mM glutamine, 100 Units/mL penicillin, 100 μg/mL streptomycin, and supplemented with 10% heat-inactivated fetal bovine serum (GIBCO Laboratories, Grand Island, N.Y., USA). Cells were then pelleted by centrifugation and resuspended in a chemically-defined medium (DMEM/B27: DMEM containing B27 supplement; GIBCO Laboratories, Grand Island, N.Y., USA) in place of FBS. Polyethyleneimine (PEI; Sigma Chemical Company, St. Louis, Mo., USA)-coated 6.4 mm (96-well) dishes were timed once with DMEM/FBS, and then seeded at 0.75 to 1.25×10^5 cells per well in 0.1 mL DMEM/B27. Cultures were maintained in a H2 O-saturated incubator with an atmosphere of 90% air/10% CO2 at 37° C. Cell viability was visually assessed by phase contrast microscopy and quantified by measuring the reduction of alamarBlue™ (Alamar biosciences, Inc., Sacramento, Calif., USA) as described below. Serum replacement with B27 supplement yields nearly pure neuronal cultures as judged by immunocytochemistry for glial fibrillary acidic protein and neuron-specific enolase (Brewer, et al.^20)
# as §2, §3
# 293 751 SWE cells = assay: Cytotoxicity (MTT) in 293 751 SWE cells; type: cell-based, human; conditions: concentration not given
# Method: (§4) This screening assay employed cells (K293=human kidney cell line) which were stably transfected with the gene for amyloid precursor protein 751 (APP751) containing the double mutation Lys651 Met652 to Asn651 Leu652 (APP751 numbering) in the manner described in International Patent Application Publication No. 94/10569^1 and Citron et al.^16. This mutation is commonly called the Swedish mutation and the cells, designated as "293 751 SWE", were plated in Coming 96-well plates at 1.5-2.5×10^4 cells per well in Dulbecco's minimal essential media plus 10% fetal bovine serum. Cell number is important in order to achieve β-amyloid ELISA results within the linear range of the assay (~0.2 to 2.5 ng per mL).
# Cytotoxic effects of the compounds were measured by a modification of the method of Hansen, et al.^17. To the cells remaining in the tissue culture plate was added 25 μL of a 3,(4,5-dimethylthiazol-2-yl)2,5-diphenyltetrazolium bromide (MTT) stock solution (5 mg/mL) to a final concentration of 1 mg/mL. Cells were incubated at 37° C. for one hour, and cellular activity was stopped by the addition of an equal volume of MTT lysis buffer (20% w/v sodium dodecylsulfate in 50% dimethylformamide, pH 4.7). Complete extraction was achieved by overnight shaking at room temperature. The difference in the OD562nm and the OD650nm was measured in a Molecular Device's UVmax microplate reader as an indicator of the cellular viability.
# [1] = system: β-amyloid peptide production; assay: Cellular screen for inhibitors of β-amyloid production (ELISA, 293 751 SWE cells); type: cell-based, human; conditions: 2 h pretreatment + 2 h, normalized for cytotoxicity (MTT), concentration not given
# Method: as §4
# Following overnight incubation at 37° C. in an incubator equilibrated with 10% carbon dioxide, media were removed and replaced with 200 μL of a substituted 3-indolyl-5-pyrazolone (drug) containing media per well for a two hour pretreatment period and cells were incubated as above.
# At the end of the pretreatment period, the media were again removed and replaced with fresh drag containing media as above and cells were incubated for an additional two hours. After treatment, plates were centrifuged in a Beckman GPR at 1200 rpm for five minutes at room temperature to pellet cellular debris from the conditioned media. From each well, 100 μL of conditioned media or appropriate dilutions thereof were transferred into an ELISA plate precoated with antibody 266 against amino acids 13-28 of β-amyloid peptide as described in International Patent Application Publication No. 94/10569^1 and stored at 4° C. overnight. An ELISA assay employing labelled antibody 6C6 against amino acids 1-16 of β-amyloid peptide was run the next day to measure the amount of β-amyloid peptide produced.
# The results of the β-amyloid peptide ELISA were fit to a standard curve and expressed as ng/mL β-amyloid peptide. […] All results are the mean and standard deviation of at least six replicate assays.
SMILES,inhibition of the toxicity of β-amyloid peptide to human neuronal cells (human cortical neurons),inhibition of the toxicity of β-amyloid peptide to rat neuronal cells (rat cortical neurons),cytotoxic effect on the 293 751 SWE cells (293 751 SWE cells),reduction of β-amyloid peptide production as compared to control [1]
"O=C1CC(Cc2cn(C(=O)c3ccc(Cl)cc3)c3ccccc23)=NN1 [A, 3-[1-(4-chlorobenzoyl)-3-indolylmethyl]-5-pyrazolone]",at least 25%,at least 10%,,
"O=C1CC(CCc2c[nH]c3ccccc23)=NN1C1CCCCC1 [D, 3-[3-indolylethyl]-1-cyclohexyl-5-pyrazolone]",at least 25%,< 10%,,
COc1ccc2c(c1)c(CC1=NN(c3ccccc3C)C(=O)C1)c(C)n2C(=O)c1ccc(Cl)cc1 [E],at least 25%,at least 10%,,
"COc1ccc2c(c1)c(CC1=NN(c3ccccc3)C(=O)C1)c(C)n2C(=O)c1ccc(Cl)cc1 [Example 8, 3-[1-(4-chlorobenzoyl)-5-methoxy-2-methyl-3-indolylmethyl]-1-phenyl-5-pyrazolone]",at least 25%,< 10%,did not have a significant cytotoxic effect,at least 20%
"COc1ccc2c(c1)c(CC1=NNC(=O)C1)c(C)n2C(=O)c1ccc(Cl)cc1 [Example 15, 3-[1-(4-chlorobenzoyl)-5-methoxy-2-methyl-3-indolylmethyl]-5-pyrazolone]",at least 25%,< 10%,,< 20%
"O=C1CC(Cc2c[nH]c3ccccc23)=NN1C1CCCCC1 [Example 18, 3-(3-indolylmethyl)-1-cyclohexyl-5-pyrazolone]",at least 25%,< 10%,,
"COc1ccc(N2N=C(Cc3c(C)n(C(=O)c4ccc(Cl)cc4)c4ccc(OC)cc34)CC2=O)cc1 [Example 23, 3-[1-(4-chlorobenzoyl)-5-methoxy-2-methyl-3-indolylmethyl]-1-(4-methoxyphenyl)-5-pyrazolone]",at least 25%,< 10%,did not have a significant cytotoxic effect,at least 20%
"COc1cccc(N2N=C(Cc3c(C)n(C(=O)c4ccc(Cl)cc4)c4ccc(OC)cc34)CC2=O)c1 [Example 24, 3-[1-(4-chlorobenzoyl)-5-methoxy-2-methyl-3-indolylmethyl]-1-(3-methoxyphenyl)-5-pyrazolone]",at least 25%,at least 10%,did not have a significant cytotoxic effect,at least 20%
"COc1ccc2c(c1)c(CC1=NN(c3cccc(Cl)c3)C(=O)C1)c(C)n2C(=O)c1ccc(Cl)cc1 [Example 26, 3-[1-(4-chlorobenzoyl)-5-methoxy-2-methyl-3-indolylmethyl]-1-(3-chlorophenyl)-5-pyrazolone]",at least 25%,at least 10%,did not have a significant cytotoxic effect,at least 20%
"COc1ccc2c(c1)c(CC1=NN(c3cc(Cl)cc(Cl)c3)C(=O)C1)c(C)n2C(=O)c1ccc(Cl)cc1 [Example 27, 3-[1-(4-chlorobenzoyl)-5-methoxy-2-methyl-3-indolylmethyl]-1-(3,5-dichlorophenyl)-5-pyrazolone]",at least 25%,at least 10%,did not have a significant cytotoxic effect,at least 20%
"COc1ccc2c(c1)c(CC1=NN(c3cccc([N+](=O)[O-])c3)C(=O)C1)c(C)n2C(=O)c1ccc(Cl)cc1 [Example 30, 3-[1-(4-chlorobenzoyl)-5-methoxy-2-methyl-3-indolylmethyl]-1-(3-nitrophenyl)-5-pyrazolone]",at least 25%,< 10%,did not have a significant cytotoxic effect,at least 20%
"COc1ccc2c(c1)c(CC1=NN(c3cccc(F)c3)C(=O)C1)c(C)n2C(=O)c1ccc(Cl)cc1 [Example 32, 3-[1-(4-chlorobenzoyl)-5-methoxy-2-methyl-3-indolylmethyl]-1-(3-fluorophenyl)-5-pyrazolone]",at least 25%,,did not have a significant cytotoxic effect,at least 20%
"COc1ccc2c(c1)c(CC1=NN(c3ccc(C)cc3)C(=O)C1)c(C)n2C(=O)c1ccc(Cl)cc1 [Example 34, 3-[1-(4-chlorobenzoyl)-5-methoxy-2-methyl-3-indolylmethyl]-1-(4-methylphenyl)-5-pyrazolone]",at least 25%,at least 10%,did not have a significant cytotoxic effect,at least 20%
